Measurements taken from paper PMC12655682, “Screening-Identified Oxazole-4-Carboxamide KB-2777 Exhibits In Vitro Anti-Coronavirus Activity” (Pharmaceutics, 2025).
Entries after “also recorded” stand apart in the source; their conditions may differ. Read-outs that look alike come from different tables or passages of the source.

Experiments:
HCoV-NL63 = experiment: Extracellular viral RNA by RT-qPCR of supernatants, HCoV-NL63/LLC-MK2; assay type: cell-based, Human coronavirus NL63
Protocol: […] Viral RNA was extracted using the QIAamp Viral RNA Mini Kit (Qiagen, Hilden, Germany)according to the manufacturer’s instructions and quantified by one-step RT-qPCR on a real-time thermocycler.
(§1) EC50 values were determined from concentration–response curves generated by 2-fold serial dilutions, with at least four concentration points per curve. Each measurement was performed in triplicate technical replicates. Unless otherwise indicated, data are presented as mean ± SEM from three independent biological experiments (n = 3).
(§2) For absolute quantification, synthetic DNA (oligonucleotide) standards corresponding to the NL63, OC43, and PEDV amplicons were used. Ten-fold serial dilutions were prepared to generate standard curves. Ct values were interpolated against the curves to obtain gene copies per reaction and converted to genome copies per mL by accounting for extraction and elution volumes and the qPCR input volume.

[1] = test system: mock-infected cells (LLC-MK2, Vero E6); experiment: EZ-Cytox WST cell viability in mock-infected cells under the same dosing as RT-qPCR; assay type: cell-based; conditions: tested concentration range (≤25 µM)
Protocol: Cells were seeded at 2 × 10^4 cells per well in 96-well plates and, after overnight attachment, exposed to test compounds for 72 h in maintenance medium. The final DMSO concentration was ≤0.1% (v/v) for all conditions, including vehicle controls. Cell viability was quantified using EZ-Cytox WST reagent (DoGenBio, Seoul, Republic of Korea) according to the manufacturer’s instructions; absorbance was read at 450 nm on a SpectraMax i3x microplate reader (Molecular Devices, San Jose, CA, USA). Viability for each well was normalized to the mean of vehicle-treated (mock) controls on the same plate and expressed as percent viability. Each condition included technical replicates (n = 3) per experiment. Concentration–response data from ≥3 independent experiments were fit to a four-parameter logistic (4PL) model in GraphPad Prism 10.1.2 (GraphPad Software, San Diego, CA, USA) (log10-transformed concentrations; bottom and top unconstrained).
We advanced KB-2777, the series member with the highest selectivity index (SI), to evaluate antiviral activity against α-coronaviruses (HCoV-NL63, PEDV) and a β-coronavirus (HCoV-OC43) by RT-qPCR. […] Representative cytopathic effect (CPE) micrographs (KB-2777 20 µM vs. virus-only) for HCoV-NL63, HCoV-OC43, and PEDV are provided in the Supplementary Information (Figure S16).

HCoV-OC43 = experiment: Extracellular viral RNA by RT-qPCR of supernatants, HCoV-OC43/Vero E6; assay type: cell-based, Human coronavirus OC43; conditions: Betacoronavirus 1, Vero C1008; HCoV-OC43/Vero E6, 72 h post-infection, n = 3
Protocol: (§3) At 72 h post-infection, 100–200 μL of culture supernatant was collected. Viral RNA was extracted using the QIAamp Viral RNA Mini Kit (Qiagen, Hilden, Germany)according to the manufacturer’s instructions and quantified by one-step RT-qPCR on a real-time thermocycler.
as §1, §2

[2] = test system: IL6, ISG15, IFNB1, NQO1, HMOX1 (HO-1), GCLM, DDIT3 (CHOP), ATF4, XBP1 transcripts; experiment: Targeted host-response transcript profiling (two-step RT-qPCR) in MRC-5 cells; assay type: cell-based, human; conditions: n = 3
Protocol: Total RNA was isolated using the RNeasy kit (QIAGEN, Hilden, Germany) according to the manufacturer’s instructions. cDNA was synthesized with the Tetro cDNA Synthesis Kit (Meridian Bioscience, Memphis, TN, USA) following the manufacturer’s protocol. Quantitative PCR was performed using Luna Universal qPCR Master Mix, SYBR (New England Biolabs, Ipswich, MA, USA). Target genes included IL6, ISG15, IFNB1, NQO1, HMOX1 (HO-1), GCLM, DDIT3 (CHOP), ATF4, and XBP1; primer sequences are listed in Table S3. ACTB served as the internal control. Expression changes were calculated as −ΔΔCt (log2 fold change) relative to time-matched calibrators (OC43 only for infected comparisons; DMSO for uninfected). Each condition included n = 3 biological replicates. At each time point, data were analyzed independently in GraphPad Prism 10.1.2 (GraphPad Software, San Diego, CA, USA) using an ordinary two-way ANOVA with factors gene (9 levels) and treatment (2 levels). Significance marks reflect within-gene simple-effects comparisons (treatment) with Tukey’s multiple-comparisons adjustment (two-tailed, α = 0.05). Time was not included as a factor; no inferences were made across time points.

PEDV = experiment: Extracellular viral RNA by RT-qPCR of supernatants, PEDV/Vero E6; assay type: cell-based; conditions: Porcine epidemic diarrhea virus, Vero C1008; PEDV/Vero E6, 72 h post-infection, n = 3
Protocol: as §3, §1, §2

Structure (SMILES): COc1cccc(-c2oc(-c3ccc(C(F)(F)F)cc3)nc2C(=O)NCC2CC2)c1 [KB-2777, N-(cyclopropylmethyl)-5-(3-methoxyphenyl)-2-(4-(trifluoromethyl)phenyl)Oxazole-4-Carboxamide]
- inhibition of viral RNA at 24 h (HCoV-NL63; HCoV-NL63, post-treatment regimen, 24 h post-infection, 0–25 µM): minimal
- EC50 (HCoV-NL63; Human coronavirus NL63, LLC-MK2, HCoV-NL63, post-treatment regimen, 48 h post-infection, read-out: EC50 (viral RNA, RT-qPCR) at 48 h): 2.42 µM
- EC50 (HCoV-NL63; Human coronavirus NL63, LLC-MK2, HCoV-NL63, post-treatment regimen, 72 h post-infection, read-out: EC50 (viral RNA, RT-qPCR) at 72 h): 5.25 µM
- EC50 (HCoV-NL63; Human coronavirus NL63, HCoV-NL63/LLC-MK2, 72 h post-infection, n = 3, read-out: EC50 (viral RNA, RT-qPCR)): 5.27 µM
- cytotoxicity in mock-infected cells [1]: without cytotoxicity; also recorded: no overt cytotoxicity
- EC50 (HCoV-OC43): 1.83 µM
- host-response transcripts (−ΔΔCt) in infected cells ([2]; OC43-infected MRC-5, OC43 + KB-2777 vs OC43 alone, time-matched): attenuated IL6, IFNB1, ISG15, and selected UPR transcripts; also recorded: attenuated these transcriptional responses
- host-response transcripts (−ΔΔCt) in uninfected cells ([2]; uninfected MRC-5, KB-2777 alone vs DMSO): changes were limited and transient
- EC50 (PEDV): 1.59 µM
